Measurements from US20240393319A1, “FLUORESCENT SENSORS AND METHODS OF MAKING AND USING” (Howard Hughes Medical Institute, priority 2023, published 2024).
“Also recorded” adds a separate entry of the source.

Tests used:
[1] = biological target: T1, iATPSnFR2 (L1-VLVG, L2-ICV, A95A, A119L; cpSFGFP inserted in epsilon subunit of Bacillus subtilis PS3 F0-F1 ATPase; SEQ ID NO: 1 / SEQ ID NO: 13) (Bacillus sp. PS3, UniProt P07678); test: Fluorescence response to ATP; assay type: biochemical
T1 construct: QD to VL at junction, L1-VLVG, L2-ICV; E. coli BL21(DE3)pLysS, Ni-NTA; HaloTag-JFX650 fusion possible
T1 sequence (P07678 whole entry, stated change not applied, the tested form may be a part): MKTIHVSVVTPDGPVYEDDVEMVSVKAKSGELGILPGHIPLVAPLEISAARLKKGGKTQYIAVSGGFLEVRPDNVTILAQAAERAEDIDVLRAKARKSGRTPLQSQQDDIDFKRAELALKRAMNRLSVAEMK
Protocol: (grey) and 37° C. (black). Error bars are s.d. of three technical replicates. Fluorescence was measured in a Cytation 5 plate reader, which has relatively rapid heating.

[2] = biological target: T2, iATPSnFR2.S29W.A95K.HaloTag-JFX650 (L1-VLVG, L2-ICV); cpSFGFP inserted in epsilon subunit of Bacillus subtilis PS3 F0-F1 ATPase; mutations A95K, S29W; SEQ ID NO: (Bacillus sp., UniProt P07678, A95K/DELINS96-108[…]/F67N/L78Y/N74K/S29W/V42K); test: ATP/nucleotide titration, binding curve fits; settings: stopped flow
T2 construct: polyhistidine tag (bacterial expression vector); made in house; host or cells: E. coli BL21 (DE3) pLysS
T2 sequence (P07678 other isoform, or with tags, fused parts or gaps S29W/V42K/F67N/N74K/L78Y): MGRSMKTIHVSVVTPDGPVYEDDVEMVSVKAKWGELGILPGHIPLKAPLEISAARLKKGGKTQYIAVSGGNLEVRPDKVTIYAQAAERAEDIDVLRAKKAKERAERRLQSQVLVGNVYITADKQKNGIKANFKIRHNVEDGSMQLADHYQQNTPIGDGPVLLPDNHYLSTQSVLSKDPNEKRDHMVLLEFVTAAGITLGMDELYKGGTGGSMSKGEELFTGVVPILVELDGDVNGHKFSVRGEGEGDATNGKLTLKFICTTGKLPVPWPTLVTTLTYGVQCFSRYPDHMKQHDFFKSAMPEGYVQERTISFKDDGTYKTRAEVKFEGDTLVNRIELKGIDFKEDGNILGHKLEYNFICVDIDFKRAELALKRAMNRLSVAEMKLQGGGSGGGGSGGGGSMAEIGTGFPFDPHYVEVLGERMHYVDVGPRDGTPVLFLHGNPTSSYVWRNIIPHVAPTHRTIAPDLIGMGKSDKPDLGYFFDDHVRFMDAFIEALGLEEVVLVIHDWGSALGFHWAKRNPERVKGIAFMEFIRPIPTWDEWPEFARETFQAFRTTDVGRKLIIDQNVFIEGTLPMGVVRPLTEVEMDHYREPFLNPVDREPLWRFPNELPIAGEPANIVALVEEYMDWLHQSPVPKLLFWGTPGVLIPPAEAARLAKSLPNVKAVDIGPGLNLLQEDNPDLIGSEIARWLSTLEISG
Excerpt: (§1) (1A) Artistic rendering of iATPSnFR2.HaloTag made with PyMol. The N-terminal fragment (residues 1-109) of the epsilon subunit of ATPase (orange, based on 2E5Y.PDB) is fused to cpSFGFP (green). The C-terminus of cpSFGFP is fused to the residual ATP-binding helix (residues 110-129) of the epsilon subunit (pink), which itself is fused to HaloTag (cyan). “Linkers” are shown as sticks in yellow. […] HaloTag fluorophore is shown as sticks in red. […] (1C-1E) Ratio of green (iATPSnFR2) to red (HaloTag-JFX650) fluorescence in fibroblasts transfected with three affinity variants of iATPSnFR2-HaloTag. […] Cells were incubated for 21 minutes in buffer containing 10 mM glucose, and then switched to buffer containing 10 mM 2-deoxyglucose. (1C) Rho° cells. (1D) Parental LMTK cell line. (1E) Parental cell line treated with both 2-deoxyglucose and oligomycin.
(§2) ATP (black), CTP (cyan), GTP (grey), TTP (purple).
(§3) Purified protein was mixed with 1.1 molar equivalents of JFX650 HaloTag Ligand and incubated at room temperature for 1 hour and then at 4° C. overnight. Excess HaloTag Ligand was removed by gel filtration on a PD-10 column (GE Life Sciences) and re-concentrated by ultrafiltration.

[3] = biological target: T3, iATPSnFR2.A95K.HaloTag-JFX650 (L1-VLVG, L2-ICV); cpSFGFP inserted in epsilon subunit of Bacillus subtilis PS3 F0-F1 ATPase; mutation A95K; SEQ ID NO: 5, without (Bacillus sp., UniProt P07678, A95K/DELINS96-108[…]/F67N/L78Y/N74K/V42K); test: ATP/nucleotide titration, binding curve fits; settings: stopped flow
T3 construct: polyhistidine tag (bacterial expression vector); made in house; host or cells: E. coli BL21 (DE3) pLysS
T3 sequence (P07678 other isoform, or with tags, fused parts or gaps V42K/F67N/N74K/L78Y): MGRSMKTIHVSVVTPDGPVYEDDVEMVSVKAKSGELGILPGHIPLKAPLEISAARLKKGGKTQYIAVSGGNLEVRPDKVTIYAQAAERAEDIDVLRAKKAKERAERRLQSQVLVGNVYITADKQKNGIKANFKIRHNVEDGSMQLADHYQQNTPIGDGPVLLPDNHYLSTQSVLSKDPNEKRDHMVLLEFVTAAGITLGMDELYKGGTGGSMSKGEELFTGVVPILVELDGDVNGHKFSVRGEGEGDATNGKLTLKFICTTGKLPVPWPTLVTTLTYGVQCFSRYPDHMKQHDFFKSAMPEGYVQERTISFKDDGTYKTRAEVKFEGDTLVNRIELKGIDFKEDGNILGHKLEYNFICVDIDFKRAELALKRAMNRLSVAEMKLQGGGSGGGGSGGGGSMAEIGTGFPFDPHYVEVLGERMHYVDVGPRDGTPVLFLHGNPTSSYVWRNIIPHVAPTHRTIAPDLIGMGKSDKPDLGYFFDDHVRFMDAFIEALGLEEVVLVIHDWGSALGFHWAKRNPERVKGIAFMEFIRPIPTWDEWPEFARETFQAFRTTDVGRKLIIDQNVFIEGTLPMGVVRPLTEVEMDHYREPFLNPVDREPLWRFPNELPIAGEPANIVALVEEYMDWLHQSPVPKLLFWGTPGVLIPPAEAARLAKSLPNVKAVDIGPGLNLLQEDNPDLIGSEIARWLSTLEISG
Excerpt: as §1, §2, §3

ChemoG-ATPSiR = settings: read-out: affinity for ATP; cited from earlier work
[4] = tested on: iATPSnFR2.HaloTag-JFX650, three variants S29W.A95K, A95K and A95A.A119L; test: Stopped-flow kinetics of ATP binding; assay type: biochemical, Bacillus subtilis PS3; settings: ATP 123-10000 μM
Protocol: Panels are the sensor with a C-terminal fusion to HaloTag-JFX650. […] Fluorescence data collected on an Applied Photophysics SX-20 stopped-flow apparatus with 490 nm LED excitation and 525 nm long pass filter. Data points are average of 5 technical replicates.
Final concentration of protein was thus 0.1 μM.

HaloTag-JF635 = test: Titration of HaloTag-JF635 with ATP; assay type: biochemical; settings: FIG. 8B
MaLion = settings: cited from earlier work
[5] = tested on: nerve terminals of hippocampal neurons; test: Nerve terminal ATP in cultured neurons (iATPSnFR2.HaloTag-JFX650); assay type: cell-based, Sprague-Dawley rats
[6] = tested on: axonal mitochondria of primary hippocampal neurons; test: Mitochondrial ATP in primary hippocampal neurons (mito-iATPSnFR2.A95A.A119L.HaloTag); assay type: cell-based, Sprague-Dawley rats; settings: 10 μM KA in 5 mM glucose
Protocol: Primary neuronal cultures were prepared as previously described. Hippocampal CA1 to CA3 regions were dissected, dissociated, and plated onto poly-L-ornithine-coated coverslips. Plating media consisted of the minimal essential medium, 0.5% glucose, insulin (0.024 g/l), transferrin ([…]), GlutaMAX 1%, N-21 (2%), and fetal bovine serum (10%). After 1-3 days in vitro (DIV), cells were fed and maintained in media with the following modifications: cytosine β-D-arabinofuranoside (4 μM) and FBS 5%. Cultures were incubated at 37° C. in a 95% air/5% CO2 incubator. Calcium phosphate-mediated gene transfer was performed on DIV 6-8, and neurons were used for experiments on DIV 14-21.
Coverslips were loaded onto a custom chamber, mounted on a […], 2.5 mM KCl, […], 25 mM HEPES, 2 mM CaCl2), 2 mM MgCl2, 50 μM DL-2-amino-5-phosphonovaleric acid (APV, AP5), 10 μM 6-cyano-7-nitroquinoxaline-2,3-dione (CNQX), adjusted to pH 7.4. […] Fluorescence was stimulated with OBIS 488 nm LX or OBIS 637 nm LS lasers (Coherent) passing through a laser speckle reducer (LSR 3005 at 12° diffusion angle, Optotune). […]
Time series of imaging pairs (HaloTag and iATPSnFR2) were automated split into two independent image series using a custom-written Fiji routine to facilitate analysis. […] Synaptic boutons signals were analyzed using homemade script routines in Igor-pro v 6.3.7.2 (Wavemetric, Lake Oswego, OR, USA). […]

[7] = tested on: synaptic boutons of hippocampal neurons; test: Syn-iATPSnFR2.HaloTag imaging of ATP depletion in boutons; assay type: cell-based, rat; settings: 5 mM glucose + 10 μM KA + 0.3 μM TTX
[8] = tested on: DJ-1 KD neurons, nerve terminals; test: Presynaptic ATP in DJ-1 knock-down neurons; assay type: cell-based, Sprague-Dawley rats; settings: TZ
Excerpt: (§4) FIG. 11A-11H are experimental results showing that PARK7/DJ-1 is necessary for PGK1 driven hypometabolic resilience.
(§5) An unbiased chemical screen recently led to the identification of an interaction between PGK1 and DJ-1, the product of the PARK7 gene, a genetic driver of familial PD. DJ-1 is a chaperone with strong structurally similarity to HSP31 but the precise clientele that it supports related to PD is poorly understood. To investigate whether DJ-1 has a functional impact on PGK1 function, we probed PGK1 rescue of hypometabolic synaptic function, but in absence of DJ-1. […] Furthermore, when glucose was substituted with a mixture of lactate and pyruvate, SV recycling kinetics in DJ-1 KD neurons was indistinguishable from control.

DJ-1 KD neurons = test: Synaptic endurance in DJ-1 knock-down neurons; assay type: cell-based, Sprague-Dawley rats; settings: TZ
Excerpt: as §4, §5

[9] = tested on: nerve terminals of primary hippocampal neurons; test: Presynaptic ATP dynamics with synapto-iATPSnFR2-miRFP670nano3; assay type: cell-based, rat; settings: 0.1 mM glucose
Excerpt: For synapto-iATPSnFR2-miRFP670nano3 experiments, nerve terminals were selected in the miRFP670nano3 channels, blind to the ATPsnfr channel and then background subtracted. The traces are reported as iATPsnfr2 to miRFP670nano3 ratio, Fratio.

[10] = tested on: primary hippocampal neurons; test: Synaptic endurance (vGlutI-pH) under repeated stimulation in 0.1 mM glucose; assay type: cell-based, rat
Rho° (ρ^0) cells = test: Green:red fluorescence (ATP) on treatment; assay type: cell-based, mouse; settings: 10 mM 2dOG replacing glucose
Protocol: (§6) Rho° and the parental LMTK-cells were maintained in T-75 flasks with DMEM+10% FBS+1 mM pyruvate+5 μM uridine. Two days prior to transfection, they were split into a 24-well plate (half Rho°, half LMTK) at 0.6 and 0.1 million cells per well, respectively. Cells were transfected with iATPSnFR2.HaloTag variants by lipofectamine (0.5 μg DNA+2 μL lipofectamine 2000 per well) for 4-6 hours in DMEM lacking FBS or antibiotics. Transfection media was replaced with fresh DMEM+10% FBS+penicillin/streptomycin overnight. Cells were labeled with JFX650 HaloTag ligand by adding the fluorophore to 100 nM for an hour. Cells were washed with Mammalian Cell Imaging Buffer and imaged in a Cytation 5 imaging reader (BioTek) over the course of about 2 hours. After about 20 minutes of imaging to establish a baseline fluorescence, the culture plate was removed from the instrument and buffer was replaced with the query buffer. The equilibration buffer contained 10 mM glucose, and the query buffers contained 10 mM 2dOG.
(§7) Images were background subtracted and aligned for movement artefacts with the Gen5 software package that controls the Cytation 5 instrument. Images were assembled as TIF stacks and imported into ImageJ. […] Those ROIs were used to determine the ratio of green to red fluorescence for each well. […]

[11] = tested on: LMTK- cells (parental fibroblast cell line); test: Green:red fluorescence (ATP) on treatment; assay type: cell-based, mouse; settings: 10 mM 2dOG replacing glucose
Protocol: as §6, §7

For `Nc1ncnc2c1ncn2[C@@H]1O[C@H](COP(=O)(O)OP(=O)(O)OP(=O)(O)O)[C@@H](O)[C@H]1O` [ATP], which “ΔF/F in response to saturating ATP” value [1] is on record?
Its value is about 12.

What about the “rate of ATP binding compared with A95A.A119L” value [2] of the same compound?
The value was “bind ATP faster than the A95A.A119L variant”.

And the “rate of ATP binding compared with A95A.A119L” value [3]?
Its value is “bind ATP faster than the A95A.A119L variant”.

What about the Kd (ChemoG-ATPSiR) of the same compound?
Its Kd is about 2 mM.

What about the “time to bind ATP” value [4] of the same compound?
Its value is “within a one or two seconds”.

What about the “sensitivity to ATP” value (HaloTag-JF635) of the same compound?
Its value is “sensitive to ATP, albeit with low ΔF/F”.

What about the “increase in fluorescence upon saturation with ATP” value (MaLion) of the same compound?
The value was about 5 fold.

For `CC(C)[C@H]1CC[C@@]2(CO2)[C@H]2C(=O)OCC(C(=O)O)=C[C@H]12` [koningic acid], which “decline of average green to red ratio (ATP) without activity” value ([5]; 10 μM KA with 0.3 μM TTX) is on record?
The value was “gradually declined over a 5-10 min period”.

And the “time for ATP depletion in single boutons after delay” value ([5]; 10 μM KA with 0.3 μM TTX)?
Its value is 10 to 20 s.

And the “change in fluorescence (ATP) during action potential firing” value ([5]; 10 μM KA, 5 mM glucose, 50 Hz 6 sec)?
Its value is “even greater decrease in fluorescence that did not recover within the minute and a half observation window”.

What about the “change in mitochondrial ATP” value [6] of the same compound?
The value was “gradual decrease of [ATP]”.

And the “average green to red fluorescence ratio in boutons” value [7]?
The value was “gradually declined over a 5-10 min period”.

Which “acceleration of ATP production after burst of activity” value [8] does the source give for `COc1cc2nc(N3CCN(C(=O)C4CCCO4)CC3)nc(N)c2cc1OC` (stereo not shown) [TZ, Terazosin] here?
The value was “inability of TZ to accelerate ATP kinetics in absence of DJ-1”.

And the “recycling restoration: slowing of SV recycling after intense stimulation” value (DJ-1 KD neurons)?
The value was “could not be reversed”.

And the “resting (pre-stimulus) nerve terminal ATP” value [9]?
Its value is “slightly elevated; also recorded: higher starting ATP”.

What about the “ATP depletion during stimulation” value ([9]; 600 APs at 10 Hz) of the same compound?
The value was “blunted; also recorded: significantly smaller activity-induced drops in ATP”.

What about the “ATP production following activity” value ([9]; DJ-1 KD neurons) of the same compound?
The value was “no acceleration of ATP production; also recorded: inability of TZ to accelerate ATP kinetics”.

What about the “synaptic endurance in low glucose” value ([10]; 1 μM) of the same compound?
The value was “ineffective”.

And the “synaptic endurance in low glucose” value ([10]; 10 μM)?
The value was “conferred significant resilience”.

And the “synaptic endurance in low glucose” value ([10]; 100 μM)?
The value was “either ineffective or likely deleterious”.

And the “synaptic endurance in low glucose” value ([10]; 0.1 mM glucose, concentration not given)?
Its value is “confers significant resilience”.

And the “synaptic endurance in low glucose” value ([10]; absence of DJ-1 (DJ-1 KD))?
Its value is “completely failed to restore synaptic endurance”.

And the “synaptic endurance in low glucose” value ([10]; neurons with shRNA targeting PGK1)?
Its value is “eliminated”.

Which “change in green fluorescence (ATP)” value (Rho° (ρ^0) cells) does the source give for `OC[C@H]1OC(O)C[C@@H](O)[C@@H]1O` (stereo partly shown) [2dOG, 2-deoxyglucose] here?
The value was “green fluorescence rapidly dropped; also recorded: significant decrease in fluorescence”.

And the “change in green fluorescence (ATP)” value [11]?
The value was “decreased fluorescence only in the parental LMTK-cells expressing the weakest affinity variant (A95A.A119L)”.
